Test [1] deals with human peripheral blood monocytes. Briefly: LID transfection of monocytes, EGFP by FACS and cell death. It counts as cell-based. To be noted: for Percentages of cells transfected (ranking): FIG. 7a. Here is the method: (§1) Lipopolyplex (LID) transfection complexes comprising lipid (L), peptide (in the form of a peptide derivative as described above) (I) and DNA (D) were prepared. The lipid component was Lipofectin or Lipofectamine 2000 (Invitrogen Ltd, Paisley, UK), the peptide component was a synthesized peptide A to F, 6 or 6J derivative, as described in Table 7 above, and the DNA was the plasmid pEGFP-N1 (Clontech, BD Biosciences, Palo Alto, Calif.)
(§2) component (Lipofectin or Lipofectamine 2000) was maintained at a constant proportion, by weight, relative to DNA of 0.75:1. Prior to making transfection complexes, in method A the lipid component was diluted to a concentration of 15 μg per ml, the peptide was prepared at 0.1 mg/ml and the DNA (plasmid pEGFP-N1, BD Biosciences, Cowley, UK, prepared using EndoFree plasmid kit, Qiagen Ltd, Crawley, UK) was at 10 μg per ml. All dilutions were performed with OptiMEM reduced serum tissue culture medium (Life Technologies Ltd, Paisley, UK). In method B prior to making transfection complexes the lipid component was diluted to a concentration of 30 μg per ml, the peptide was prepared at 0.1 mg/ml and the DNA (plasmid pEGFP-N1, BD Biosciences, Cowley, UK, prepared using EndoFree plasmid kit, Qiagen Ltd, Crawley, UK) was at […]. All dilutions were performed in serum-free RPMI.
(§3) Transfection complexes were made by mixing the components in the order 1) lipid (50 μl) then 2) peptide (70 μl) and finally 3) DNA (50 μl), then diluting with OptiMEM or serum free RPMI, as appropriate, to a concentration relative to the DNA component of 2 μg DNA per […] (OptiMEM) or 500 μl (RPMI).
(§4) For transfection of monocytes, peripheral blood monocytes were prepared using Lymphoprep centrifugation and CD14 bead selection as described in the method for preparation of monocyte derived dendritic cells in Example 1(v) above. These cells were then transfected as described as described for dendritic cells except that transfection of the monocytes (and also of day 3 or day 4 immature dendritic cells) was carried out in solution.
For orientation: Flow cytometry measures light scatter and fluorescence of single cells or particles in a stream.

In test [2] the test system is human monocyte-derived immature dendritic cells. Briefly: LID (lipid-peptide-DNA) transfection of immature dendritic cells, EGFP by FACS and 7AAD cell death. To be noted: for Transfection efficiency, % positive cells: day 4 cells; for Transfection efficiency (percentage cells positive for EGFP) relative to peptide 6: day 6 cells, LID vector. It counts as cell-based. Here is the method:
as §1
In the transfection complex, peptide component to DNA charge ratios (+/−) were used at 1.5:1, 3:1 and 7:1. The lipid
as §2, §3
Immature day 6 dendritic cells, obtained as described in Example 1(v) above, were plated into a 48 well plate at 5×10^4 cells per well in complete media and allowed to settle for 3 hours at 37° C. 300 μl or 500 μl (as appropriate) of the transfection complex obtained as described above was added to each well. The transfection complex was applied to cells within 5 minutes of preparation. Transfection incubations were performed at 37° C. for 4 hours, after which the medium was replaced with complete medium with cytokines for 24 hours. Cells were harvested by scraping, spun down and resuspended in 300 μl PBS for FACS analysis to determine the percentage of cells positive for the reporter gene EGFP (Enhanced Green Fluorescent Protein). Each transfection was performed in triplicate wells.
as §4

Another test concerns HAEo- cells. In words: LID transfection, luciferase reporter assay, HAEo-. To be noted: LID with lipofectin. The format is cell-based, human. Here is the method: Transfection complexes comprising lipid, peptide and DNA were prepared. The lipid component was lipofectin (Invitrogen Ltd, Paisley, UK), the peptide component was a peptide A to F, 6 or 6J derivative, as described above, and the DNA was the plasmid pCILuc (Promega UK Ltd, Southampton). In the transfection complex, peptide to DNA charge ratios (+/−) were used at 3:1, 5:1 and 7:1. The lipid component was maintained at a constant proportion, by weight, relative to DNA of 0.75:1. Prior to making transfection complexes the lipid component was diluted to a concentration of 15 μg or 30 μg per ml, the peptide was prepared at 0.1 mg/ml and the DNA was at 40 μg per ml. All dilutions were performed with OptiMEM reduced serum tissue culture medium (Life Technologies). Transfection complexes were made by mixing of components in the order 1) lipid then 2) peptide and finally 3) DNA, then diluted with OptiMEM to a concentration relative to the DNA component of 0.25 μg DNA per […]
For transfection of these types of cell i.e. HMEC, HAEo-, N2a and HepG2, 1×10^4 cells were seeded overnight in 96 well plate. 200 μl of the suspension of the transfection complex prepared according to (b) above was added to each well. The suspension was applied to cells within 5 minutes of preparation. […]
Background: A reporter such as luciferase makes a cellular process visible.

In a further test the test system is 1HAEo- cells. Briefly: Adenoviral transduction of 1HAEo- cells. The format is cell-based, human. To be noted: 10,000 particles per cell in OptiMEM; listed as peptide A. Here is the method: Day 6 dendritic cells (see Example 1(v) above), or mouse bone marrow derived dendritic cells or mouse Sca1+ve stem cells, see (i) and (ii) above, were plated at 5×10^4 cells per well in a 48 well plate in 500 μl complete medium and allowed to settle for 3 hours at 37° C. Transductions were carried out in complete media, with virus being added at 100,000 viral particles/cell for 24 hours. Cells were harvested by scraping, spun down at 650 g (2000 rpm) for 5 min, resuspended in 300 μl PBS, and kept on ice before analysis. Viral transduction as determined by percentage of GFP positive cells was measured by FACS analysis. To measure percentage viability, 10 μl of 7-amino-actinomycin D (7AAD; Sigma, Poole, Dorset) was added immediately prior to analysis. Viral transduction of macrophages was carried out at 10,000 particles/cell in medium containing 2.5% FCS. […] Cells were then washed twice in PBS, trypsinised, triplicate wells pooled, spun down at 350×g for 5 min and resuspended in 300 μl PBS before analysis by flow cytometry where cell viability was to be measured, 10 μl 7AAD was added just prior to analysis.
For transduction of these other cell types, cells were seeded overnight at 5×10^4 cells per well in 24 well plates in the appropriate media. […] Where cell viability was to be measured, 10 μl 7-amino-actinomycin D (7AAD; Sigma, Poole, Dorset) was added just prior to analysis. […]

Setting [3] is: lipofectin, lipid:DNA 0.75:1, peptide:DNA 7:1 (FIG. 5a).

With “APSNSTA (Synthetic peptide binding to dendritic cells)”, the “Percentages of cells transfected (ranking)” value in test [1] was “highest percentages of cells transfected”. The “Transfection efficiency, % positive cells” value in test [2] (setting [3]) is recorded as 11%. Besides, the “Transfection efficiency (percentage cells positive for EGFP) relative to peptide 6” value in test [2] is recorded as “equal to those of peptide 6”. Besides, the “Transfection efficiency (luciferase activity per mg protein) relative to peptide 6” value in the test on HAEo- cells was “one and a half times that using peptide 6”.

In the case of “SHVKLNS (Synthetic peptide binding to dendritic cells) [listing 1 of 2 here]”, the “Transduction, % cells transduced” value with 1HAEo- cells was 82.9%.

With “SHVKLNS (Synthetic peptide binding to dendritic cells) [listing 2 of 2 here]”, the “Percentages of cells transfected (ranking)” value in test [1] was “highest percentages of cells transfected”. Further, in test [1] (combined with Lipofectin), the “Percent positive for EGFP” value is recorded as 6%. The “Transfection efficiency, % positive cells” value in test [2] (setting [3]) is 17%; in test [2] (no lipid) it was “less than 1%”. Also, in test [2], the “Transfection efficiency (percentage cells positive for EGFP) relative to peptide 6” value is “approximately one and a half times that of the positive control, peptide 6”. Besides, the “Transfection efficiency (luciferase activity per mg protein) relative to peptide 6” value with HAEo- cells was “approximately double that seen with peptide 6”.
